Data from PubChem BioAssay AID248 (DTP/NCI, 2004).
Several values for one entry are separate records, joined by “and”; a condition that tells them apart may be missing. Equal entries are not always repeated. Toxic doses and inconclusive results are not listed. No stated cut-off is given here; in the data, active means T/C of 150% or more; inactive means T/C below 125%.

Test system: L1210 leukemia ip in BDF1 mice, survival T/C
Assay: NCI In Vivo Anticancer Drug Screen. Data for tumor model L1210 Leukemia (intraperitoneal) in B6D2F1 (BDF1) mice
Conditions: endpoint: mean survival time, higher = longer survival
How it was run: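 Tumor was transplanted into mice, which were then dosed with test compound or vehicle alone. Survival was recorded for each group, and the treated figure was expressed relative to the control figure.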

[1] = dose: 100.0 mg/kg/injection, schedule: Q01DX001 (ip), vehicle: saline with Tween-80
[2] = dose: 100.0 mg/kg/injection, schedule: Q01DX009 (ip), vehicle: saline with Tween-80
[3] = dose: 100.0 mg/kg/injection, schedule: Q04DX002 (ip), vehicle: saline with Tween-80
[4] = dose: 200.0 mg/kg/injection, schedule: Q01DX001 (ip), vehicle: saline with Tween-80
[5] = dose: 200.0 mg/kg/injection, schedule: Q01DX009 (ip), vehicle: saline with Tween-80
[6] = dose: 200.0 mg/kg/injection, schedule: Q04DX002 (ip), vehicle: saline with Tween-80
[7] = dose: 400.0 mg/kg/injection, schedule: Q01DX001 (ip), vehicle: saline with Tween-80
[8] = dose: 400.0 mg/kg/injection, schedule: Q04DX002 (ip), vehicle: saline with Tween-80
[9] = dose: 100.0 mg/kg/injection, schedule: Q01DX001 (ip), vehicle: Klucel (hydroxypropylcellulose) (HPC)
[10] = dose: 100.0 mg/kg/injection, schedule: Q01DX009 (ip), vehicle: Klucel (hydroxypropylcellulose) (HPC)
[11] = dose: 100.0 mg/kg/injection, schedule: Q04DX003 (ip), vehicle: Klucel (hydroxypropylcellulose) (HPC)
[12] = dose: 200.0 mg/kg/injection, schedule: Q01DX001 (ip), vehicle: Klucel (hydroxypropylcellulose) (HPC)
[13] = dose: 200.0 mg/kg/injection, schedule: Q01DX009 (ip), vehicle: Klucel (hydroxypropylcellulose) (HPC)
[14] = dose: 200.0 mg/kg/injection, schedule: Q04DX003 (ip), vehicle: Klucel (hydroxypropylcellulose) (HPC)
[15] = dose: 400.0 mg/kg/injection, schedule: Q01DX001 (ip), vehicle: Klucel (hydroxypropylcellulose) (HPC)
[16] = dose: 400.0 mg/kg/injection, schedule: Q01DX009 (ip), vehicle: Klucel (hydroxypropylcellulose) (HPC)
[17] = dose: 400.0 mg/kg/injection, schedule: Q04DX003 (ip), vehicle: Klucel (hydroxypropylcellulose) (HPC)
[18] = dose: 400.0 mg/kg/injection, schedule: Q01DX009 (ip), vehicle: saline with Tween-80
[19] = dose: 100.0 mg/kg/injection, schedule: Q04DX003 (ip), vehicle: saline with Tween-80
[20] = dose: 100.0 mg/kg/injection, schedule: Q01DX009 (ip), vehicle: saline
[21] = dose: 200.0 mg/kg/injection, schedule: Q01DX009 (ip), vehicle: saline
[22] = dose: 400.0 mg/kg/injection, schedule: Q01DX009 (ip), vehicle: saline

Measured: T/C

COc1ccc(Cl)cc1NC(=O)C(Cl)(Cl)Cl
inactive: dose: 50.0 mg/kg/injection, schedule: Q01DX001 (ip), vehicle: saline with Tween-80 102 % of control | [1] 88 % of control and 92 % of control | [2] 94 % of control | [3] 100 % of control and 101 % of control | [4] 91 % of control | [5] 95 % of control and 89 % of control | [6] 93 % of control and 98 % of control | [7] 89 % of control | [8] 93 % of control and 94 % of control

O=C1OC(c2ccccc2)=N/C1=C/c1ccc(OCc2ccccc2)c(OCc2ccccc2)c1
inactive: [1] 91 % of control | [4] 95 % of control | [7] 86 % of control

CC(C)(C)[CH2][Sn]([Br])([Br])[CH2]C(C)(C)C
inactive: dose: 9.38 mg/kg/injection, schedule: Q01DX001 (ip), vehicle: other 98 % of control

O=C(NC(=O)C(Cl)Cl)Nc1ccc2c(c1)-c1ccccc1C2
inactive: [9] 87 % of control | [10] 96 % of control | [11] 92 % of control | [12] 90 % of control | [13] 94 % of control | [14] 92 % of control | [15] 92 % of control | [16] 100 % of control | [17] 88 % of control

NC(=S)N1CCCC1
inactive: [11] 93 % of control | [14] 96 % of control | [17] 93 % of control

CCCCCCC(=O)CCCCCC/C=C/CC(O)C(O)C(N)(CO)C(=O)O (stereo not given)
inactive: dose: 0.78 mg/kg/injection, schedule: Q04DX002 (ip), vehicle: saline with Tween-80 104 % of control | dose: 1.56 mg/kg/injection, schedule: Q04DX002 (ip), vehicle: saline with Tween-80 104 % of control | dose: 3.13 mg/kg/injection, schedule: Q04DX002 (ip), vehicle: saline with Tween-80 100 % of control

CCc1cc(C(C)(C)C)c(O)c(C(C)(C)C)c1
inactive: [1] 95 % of control | [4] 102 % of control | [7] 95 % of control

CCOc1ccc(OCC)c(NC(=O)Nc2ccc(F)c([N+](=O)[O-])c2)c1
inactive: [10] 101 % of control | [13] 93 % of control | [16] 87 % of control

CN(CC(=O)O)C(=O)c1ccccc1
inactive: dose: 75.0 mg/kg/injection, schedule: Q01DX001 (ip), vehicle: saline 96 % of control | dose: 150.0 mg/kg/injection, schedule: Q01DX001 (ip), vehicle: saline 96 % of control

COc1ccc(/C=C/C(=O)O)cc1
inactive: [2] 100 % of control | [3] 88 % of control | [5] 107 % of control | [6] 98 % of control | [18] 97 % of control | [8] 88 % of control

O=C(O)/C=C/C(=O)Nc1ccc([N+](=O)[O-])cc1
inactive: [2] 101 % of control | [19] 107 % of control | [5] 102 % of control | dose: 200.0 mg/kg/injection, schedule: Q04DX003 (ip), vehicle: saline with Tween-80 101 % of control | [18] 95 % of control | dose: 400.0 mg/kg/injection, schedule: Q04DX003 (ip), vehicle: saline with Tween-80 107 % of control

O=C(Nc1cccc([N+](=O)[O-])c1)c1ccc(C(=O)Nc2cccc([N+](=O)[O-])c2)cc1
inactive: dose: 100.0 mg/kg/injection, schedule: Q04DX002 (ip), vehicle: Klucel (hydroxypropylcellulose) (HPC) 98 % of control | dose: 200.0 mg/kg/injection, schedule: Q04DX002 (ip), vehicle: Klucel (hydroxypropylcellulose) (HPC) 91 % of control | dose: 400.0 mg/kg/injection, schedule: Q04DX002 (ip), vehicle: Klucel (hydroxypropylcellulose) (HPC) 86 % of control

CC(C)(C)c1cc(N)cc(C(C)(C)C)c1O
inactive: [6] 87 % of control | [8] 90 % of control

CCC(CCC(C)C1CCC2C3CC=C4CC(OC(=O)Nc5ccc(Cl)cc5)CCC4(C)C3CCC12C)C(C)C (stereo not given)
inactive: [3] 91 % of control | [6] 97 % of control | [8] 94 % of control

COc1cccc2c1CCC1C2CC=C2CC3(CCC21C)OCCO3 (stereo not given)
inactive: dose: 100.0 mg/kg/injection, schedule: Q01DX009 (sc), vehicle: steriod suspending solution 102 % of control | dose: 200.0 mg/kg/injection, schedule: Q01DX009 (sc), vehicle: steriod suspending solution 102 % of control | dose: 400.0 mg/kg/injection, schedule: Q01DX009 (sc), vehicle: steriod suspending solution 101 % of control

CC1=CCCC1
inactive: [20] 101 % of control | [21] 95 % of control | [22] 95 % of control

N#CCC(C#N)N1CCOCC1 (stereo not given)
inactive: dose: 25.0 mg/kg/injection, schedule: Q01DX009 (ip), vehicle: saline with Tween-80 92 % of control | dose: 50.0 mg/kg/injection, schedule: Q01DX009 (ip), vehicle: saline with Tween-80 104 % of control | [2] 93 % of control | [19] 97 % of control

CCCCCc1c(CCC)[nH]c(=O)[nH]c1=O
inactive: [9] 105 % of control | [12] 106 % of control | [15] 90 % of control

CC(=O)OCC1OC(n2ccc3c(=O)[nH]cnc32)C(OC(C)=O)C1OC(C)=O (stereo not given)
inactive: dose: 25.0 mg/kg/injection, schedule: Q01DX015 (ip), vehicle: carboxymethylcellulose (CMC) 121 % of control | dose: 50.0 mg/kg/injection, schedule: Q01DX001 (ip), vehicle: carboxymethylcellulose (CMC) 94 % of control | dose: 50.0 mg/kg/injection, schedule: Q01DX015 (ip), vehicle: carboxymethylcellulose (CMC) 112 % of control | dose: 100.0 mg/kg/injection, schedule: Q01DX001 (ip), vehicle: carboxymethylcellulose (CMC) 96 % of control | dose: 200.0 mg/kg/injection, schedule: Q01DX001 (ip), vehicle: carboxymethylcellulose (CMC) 100 % of control | dose: 400.0 mg/kg/injection, schedule: Q01DX001 (ip), vehicle: carboxymethylcellulose (CMC) 102 % of control

COc1cccc(OC)c1OC(=O)Nc1ccccc1C(F)(F)F
inactive: [20] 98 % of control | [21] 98 % of control | [22] 100 % of control

N=C(N)c1ccc(Oc2ccc(-c3cc4ccc(C(=N)N)cc4[nH]3)cc2)cc1
inactive: dose: 1.56 mg/kg/injection, schedule: Q01DX009 (ip), vehicle: saline with Tween-80 90 % of control | dose: 3.12 mg/kg/injection, schedule: Q01DX009 (ip), vehicle: saline with Tween-80 106 % of control | dose: 6.25 mg/kg/injection, schedule: Q04DX003 (ip), vehicle: saline 100 % of control (2×) and 112 % of control | dose: 12.5 mg/kg/injection, schedule: Q01DX009 (ip), vehicle: saline with Tween-80 119 % of control | dose: 12.5 mg/kg/injection, schedule: Q04DX003 (ip), vehicle: saline 112 % of control and 120 % of control and 122 % of control | dose: 25.0 mg/kg/injection, schedule: Q04DX003 (ip), vehicle: saline 112 % of control

c1ccc2oc(CCCCc3nc4ccccc4o3)nc2c1
inactive: [10] 91 % of control | [11] 102 % of control | [13] 102 % of control | [14] 104 % of control | [16] 92 % of control | [17] 102 % of control
